How the values were obtained:
[1] = test system: MDA-MB-231; test: MTT antiproliferative assay; type: cell-based, human
Description: (§1) The antiproliferative properties of the tested compounds were additionally determined using the MTT assay against a panel of human adherent cancer cell lines isolated from breast (MCF-7 and MDA-MB-231), cervical (HeLa and SiHa), and ovarian (A2780) tumors and also on the NIH/3T3 fibroblast cell line (Table 3). IC50 values were calculated from a wider concentration range (0.1–30 μM) when higher than 50% cell growth inhibition was obtained at 10 μM (Table 4). Cisplatin was used as a reference compound. […] The noncancerous fibroblast cell line NIH/3T3 was used to gather preliminary data regarding the cancer selectivity of vindolin derivatives. […] The tumor selectivity of compound 9g, expressed as the ratio of IC50 on cancer cells and fibroblasts, is substantially higher than that of cisplatin (Table 4).
(§2) The antiproliferative effects of the prepared derivatives were evaluated in vitro using the MTT assay against a panel of human adherent cancer cell lines, including breast (MDA-MB-231, MCF-7), cervical (SiHa, HeLa), and ovarian (A2780) cancer cells. The noncancerous fibroblast cell line NIH/3T3 was included to obtain data concerning the tumor selectivity of the test substances. All cell lines were sourced from the European Collection of Cell Cultures (Salisbury, UK), except for SiHa (American Tissue Culture Collection (Manassas, VA, USA). All cell lines were maintained in Eagle’s Minimal Essential Medium (EMEM) supplemented with 10% fetal bovine serum (FBS), 1% non-essential amino acids, and a mixture of penicillin, streptomycin, and amphotericin B. The cells were maintained in a humidified atmosphere containing 5% CO2 at 37 °C. The media and the cell culture supplements were procured from Capricorn Scientific Ltd. (Ebsdorfergrund, Germany). Cells were seeded into 96-well microplates at 5000/well and, the next day, treated with vindoline derivatives at two concentrations (10 or 30 μM) for 72 h under cell culturing conditions. […] When higher than 50% cell growth inhibition was observed, the assay was repeated using a wide concentration range (0.1–30 μM). The IC50 values were calculated using GraphPad Prism software 10.3.1 (GraphPad Software, San Diego, CA, USA). Two independent experiments were performed with at least five replicates per condition.

[2] = test system: SiHa; test: MTT antiproliferative assay; type: cell-based, human
Description: as §1, §2

[3] = test system: MCF-7; test: MTT antiproliferative assay; type: cell-based, human
Description: as §1, §2

[4] = test system: HeLa; test: MTT antiproliferative assay; type: cell-based, human
Description: as §1, §2

[5] = test system: A2780; test: MTT antiproliferative assay; type: cell-based, human
Description: as §1, §2

[6] = test system: A2780 cells; test: Cell cycle analysis (propidium iodide flow cytometry); type: cell-based, human
Description: Based on its promising IC50 and selectivity, compound 9g was selected for further investigations, including cell cycle analysis. Treatment with derivative 9g induced concentration- and time-dependent cell cycle disturbances in A2780 ovarian cancer cells, accompanied by apoptosis (Figure 3). […] After a 48 h exposure, the lower concentration maintained this pattern (G0/G1 elevation and S and G2/M reduction).
A2780 cells were seeded onto 12-well plates at densities of 200,000 cells per well and the plates were then incubated overnight under standard cell culture conditions. Then, the media were removed and the cells in each well were washed with phosphate-buffered saline (PBS) and treated with 1000 µL of fresh medium containing 1.5 or 3.0 µM of compound 9g for 24 or 48 h. After the incubation, the cells were washed with PBS and harvested using trypsinization. The cell suspensions were centrifuged at 1100 rpm for 5 min at room temperature. The cells were rewashed and fixed in 500 µL of cold 70% ethanol for 30 min. Following the fixation, cells were centrifuged at 1300 rpm for 5 min at 4 °C and the pellets were resuspended in 300 µL staining solution (containing 10 µg/mL propidium iodide, 0.1% Triton-X, 0.1% sodium citrate, and 10 µg/mL RNase-A in water). The samples were stored in the dark at room temperature for 30 min. The stained cells were then analyzed using a flow cytometer (CytoFLEX, Beckman Coulter, Brea, CA, USA), recorded by CytExpert Software 2.5.0.77 (Beckman Coulter), ensuring that at least 20,000 events per sample were evaluated. The percentages of cells in different phases of the cell cycle (subG1, G1, S, and G2/M) were determined using ModFit LT 3.3.11 software (Verity Software House, Topsham, ME, USA); the subG1 fraction indicated the apoptotic cell population, as referenced by Vermes et al.. […]

[7] = test system: panel of human adherent cancer cell lines; test: MTT antiproliferative assay, whole cancer panel; type: cell-based; details: Homo sapiens
Description: as §1, §2

## CC[C@]12C=CCN3CC[C@@]4(c5ccc(OC)cc5N(C)[C@H]4[C@@](O)(C(=O)OC)[C@@H]1OC(=O)CCC[P+](c1ccccc1)(c1ccccc1)c1ccccn1)[C@@H]32 [9g]
[1]; Homo sapiens, MDA-MB-231, 10 μM, 72 h, read-out: Growth Inhibition (%) ± SEM
  inhibition at 10 µM: 72.04 ± 0.35%
[1]; Homo sapiens, MDA-MB-231, 30 μM, 72 h, read-out: Growth Inhibition (%) ± SEM (converted)
  inhibition at 30 µM: 87.7%
[1]; Homo sapiens, MDA-MB-231, MTT, 72 h, read-out: IC50 Value (μM) ± SEM
  IC50: 3.35 ± 0.12 µM
[1]; ratio of IC50 on MDA-MB-231 cells and NIH/3T3 fibroblasts
  Selectivity Ratio: 0.23
[2]; Homo sapiens, SiHa, 10 μM, 72 h, read-out: Growth Inhibition (%) ± SEM
  inhibition at 10 µM: 62.5 ± 0.87%
[2]; Homo sapiens, SiHa, 30 μM, 72 h, read-out: Growth Inhibition (%) ± SEM (converted)
  inhibition at 30 µM: 83.8%
[2]; Homo sapiens, SiHa, MTT, 72 h, read-out: IC50 Value (μM) ± SEM
  IC50: 2.42 ± 0.05 µM
[2]; ratio of IC50 on SiHa cells and NIH/3T3 fibroblasts
  Selectivity Ratio: 0.17
[3]; Homo sapiens, MCF7, MCF-7, 10 μM, 72 h, read-out: Growth Inhibition (%) ± SEM
  inhibition at 10 µM: 81.9 ± 0.84%
[3]; Homo sapiens, MCF7, MCF-7, 30 μM, 72 h, read-out: Growth Inhibition (%) ± SEM (converted)
  inhibition at 30 µM: 89.9%
[3]; Homo sapiens, MCF7, MCF-7, MTT, 72 h, read-out: IC50 Value (μM) ± SEM
  IC50: 2.56 ± 0.1 µM
[3]; ratio of IC50 on MCF-7 cells and NIH/3T3 fibroblasts
  Selectivity Ratio: 0.18
[4]; Homo sapiens, HeLa, 10 μM, 72 h, read-out: Growth Inhibition (%) ± SEM
  inhibition at 10 µM: 61.5 ± 2.35%
[4]; Homo sapiens, HeLa, 30 μM, 72 h, read-out: Growth Inhibition (%) ± SEM (converted)
  inhibition at 30 µM: 68.5%
[4]; Homo sapiens, HeLa, MTT, 72 h, read-out: IC50 Value (μM) ± SEM
  IC50: 6.48 ± 0.12 µM
[4]; ratio of IC50 on HeLa cells and NIH/3T3 fibroblasts
  Selectivity Ratio: 0.45
[5]; Homo sapiens, A2780, 10 μM, 72 h, read-out: Growth Inhibition (%) ± SEM
  inhibition at 10 µM: 79.4 ± 2.63%
[5]; Homo sapiens, A2780, 30 μM, 72 h, read-out: Growth Inhibition (%) ± SEM (converted)
  inhibition at 30 µM: 85.5%
[5]; Homo sapiens, A2780, MTT, 72 h, read-out: IC50 Value (μM) ± SEM
  IC50: 1.5 ± 0.2 µM
[5]; ratio of IC50 on A2780 cells and NIH/3T3 fibroblasts
  Selectivity Ratio: 0.10
[6]; A2780, 1.5 μM and 3.0 μM, 24 h
  S and G2/M phase populations: decreasing
  proportion of cells in the G0/G1 phase: significantly increased
[6]; A2780, particularly after the more prolonged exposure (48 h)
  subG1 cell population: remarkable increase
[7]; 10 μM, against all tested cancer cells, read-out: cell growth inhibition
  inhibition at 10 µM: > 60%
[7]; range over the cancer cells
  IC50: 1.5 to 6.48 µM
